Test results taken from article PMC11372076, “A dual inhibitor of PIP5K1C and PIKfyve prevents SARS-CoV-2 entry into cells” (Experimental & Molecular Medicine, 2024).
pIC50: −log10 of the molar value.

Key:
PIP5K1A = PIP5K1A (Homo sapiens, UniProt Q99755); assay: SelectScreen Kinase Profiling Service (single point and 10 point titration); format: biochemical
Text: (§1) UNI418 has a core structure consisting of 4-quinazolinamine (Fig. 1a, green), which is often found in kinase inhibitors. […] The phosphoinositide (PI) system is a crucial regulatory mechanism in membrane trafficking and is tightly regulated through phosphorylation cascades by multiple phosphatidylinositol phosphate kinases (PIPKs)[30]. We hypothesized that UNI418 may inhibit PIPK(s) and performed PIPK profiling analysis. […] To test whether UNI418 interacts with PIP5K1C and PIKfyve, we performed a CETSA, which determines the characteristics of protein stabilization upon ligand binding to the target protein[31]. UNI418- or DMSO-treated cell lysates were incubated at different temperatures, and the presence of the target protein in the soluble fraction was analyzed by Western blotting (Fig. 1c).
(§2) Fig. 1 UNI418 specifically targets PIP5K1 and PIKfyve. a Chemical structure of UNI418. The 4-quinazolinamine core is highlighted in green. b Table of the kinase profiling analysis. Inhibition of several kinases was determined at a 1 μM concentration of UNI418 and analyzed by the SelectScreen Kinase Profiling Service (Thermo Fisher Scientific). c Cellular thermal shift assay. Ectopically expressed GFP-PIP5K1C and GFP-PIKfyve were heated to the indicated temperatures with/without UNI418, and the presence of protein in the soluble fraction was analyzed by Western blot analysis. TEXT PRINTED IN THE PICTURE: (b) UNI418: % Inhibition (mean): 11 ([ATP] Tested (μM): 10; Kinase Tested: PI4K2A (PI4K2 alpha)); % Inhibition (mean): 4 ([ATP] Tested (μM): 10; Kinase Tested: PI4K2B (PI4K2 beta)); % Inhibition (mean): -6 ([ATP] Tested (μM): 10; Kinase Tested: PI4KA (PI4K alpha)); % Inhibition (mean): 48 ([ATP] Tested (μM): Km app; Kinase Tested: PI4KB (PI4K beta)); % Inhibition (mean): 20 ([ATP] Tested (μM): 10; Kinase Tested: PIK3C2B (PI3K-C2 beta)); % Inhibition (mean): 22 ([ATP] Tested (μM): 10; Kinase Tested: PIK3C2G (PI3K-C2 gamma)); % Inhibition (mean): 4 ([ATP] Tested (μM): 100; Kinase Tested: PIK3C3 (hVPS34)); % Inhibition (mean): 8 ([ATP] Tested (μM): 10; Kinase Tested: PIK3CA/PIK3R3 (p110 alpha/p55 gamma)); % Inhibition (mean): 7 ([ATP] Tested (μM): 10; Kinase Tested: PIK3CB/PIK3R2 (p110 beta/p85 beta)); % Inhibition (mean): 9 ([ATP] Tested (μM): 10; Kinase Tested: PIP4K2A); % Inhibition (mean): 67 ([ATP] Tested (μM): 10; Kinase Tested: PIP5K1A); % Inhibition (mean): 93 ([ATP] Tested (μM): 10; Kinase Tested: PIP5K1B); % Inhibition (mean): 93 ([ATP] Tested (μM): 10; Kinase Tested: PIP5K1C); % Inhibition (mean): 100 ([ATP] Tested (μM): 100; Kinase Tested: PIKFYVE) | (b) Apilimod: % Inhibition (mean): 100 ([ATP] Tested (μM): 100; Kinase Tested: PIKFYVE) […]
(§3) Supplementary Fig. 2 UNI418 inhibits PIP5K1B/C and PIKfyve. a Inhibition graph of PIP5K1 kinases at the 10 point titration with UNI418. IC 50 value of PIP5K1 kinases was analyzed by Thermo Fisher Scientific’s SelectScreen kinase profiling service. b Kd (nM) values of PIP5K1C and PIKfyve inhibition were determined using the Eurofins kinase assay service.
(§4) (1 picture or pasted object on this page, not shown here)

PIP5K1C = PIP5K1C (Homo sapiens, UniProt O60331); assay: as above; format: biochemical
Chain of PIP5K1C (O60331 whole entry): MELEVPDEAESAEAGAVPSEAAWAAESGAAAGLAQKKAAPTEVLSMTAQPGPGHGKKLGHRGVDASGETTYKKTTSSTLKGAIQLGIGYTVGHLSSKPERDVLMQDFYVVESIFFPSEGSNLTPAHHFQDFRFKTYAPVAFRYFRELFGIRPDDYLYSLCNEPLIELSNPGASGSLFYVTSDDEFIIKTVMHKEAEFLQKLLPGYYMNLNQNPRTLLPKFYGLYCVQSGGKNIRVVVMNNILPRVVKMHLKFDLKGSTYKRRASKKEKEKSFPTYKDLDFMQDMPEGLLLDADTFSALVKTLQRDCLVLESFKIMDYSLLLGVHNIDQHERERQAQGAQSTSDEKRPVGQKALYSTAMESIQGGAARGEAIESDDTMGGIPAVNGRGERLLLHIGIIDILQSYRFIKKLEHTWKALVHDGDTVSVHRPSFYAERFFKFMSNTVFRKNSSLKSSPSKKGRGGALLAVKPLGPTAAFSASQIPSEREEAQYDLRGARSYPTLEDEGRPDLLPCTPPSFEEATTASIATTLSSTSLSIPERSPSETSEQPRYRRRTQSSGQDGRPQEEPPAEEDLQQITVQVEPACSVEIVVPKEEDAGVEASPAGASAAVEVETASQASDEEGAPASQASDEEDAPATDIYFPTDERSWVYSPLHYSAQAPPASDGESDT
Text: as §1, §2, §3, §4

PIP5K1B = PIP5K1B (Homo sapiens, UniProt O14986); assay: as above; format: biochemical
Chain of PIP5K1B (O14986 whole entry): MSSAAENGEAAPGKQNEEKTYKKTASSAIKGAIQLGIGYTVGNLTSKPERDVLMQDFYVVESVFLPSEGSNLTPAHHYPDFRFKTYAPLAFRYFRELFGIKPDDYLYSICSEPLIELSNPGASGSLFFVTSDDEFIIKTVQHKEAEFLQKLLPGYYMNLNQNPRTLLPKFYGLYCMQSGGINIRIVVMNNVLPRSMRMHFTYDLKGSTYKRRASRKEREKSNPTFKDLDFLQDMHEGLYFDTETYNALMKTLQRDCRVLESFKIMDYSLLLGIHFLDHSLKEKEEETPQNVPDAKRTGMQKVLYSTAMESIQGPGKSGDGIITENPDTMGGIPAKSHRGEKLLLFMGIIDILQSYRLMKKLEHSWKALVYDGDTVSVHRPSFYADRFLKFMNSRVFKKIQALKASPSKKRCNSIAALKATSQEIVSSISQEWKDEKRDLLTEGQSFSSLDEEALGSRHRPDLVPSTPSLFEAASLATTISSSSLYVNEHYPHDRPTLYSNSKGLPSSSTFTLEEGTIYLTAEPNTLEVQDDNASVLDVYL
Text: as §1, §2, §3, §4

VSV-G-pseudotyped virus = format: cell-based
[1] = system: HEK293T cells stably expressing mCherry-GFP-LC3; assay: mCherry-GFP-LC3 tandem fluorescent protein quenching assay; format: cell-based; details: 0.5 μM, within 6 h
Protocol: HEK293T cells at a density of 1.6 × 10^4 cells per well in 96-well plates (Nunc) were stained with Hoechst (Cayman Chemical Company, 33342) for 10 min. The cells were washed with PBS two times and incubated with prewarmed media supplemented with 10% FBS. Cells were treated with UNI418 in prewarmed media. Images were acquired in a time-dependent manner and quantified with an ImageXpress high-content screening system (Molecular Devices, San Jose, CA, USA).
Fig. 3 UNI418 negatively affects autophagosome-lysosome fusion and endosome acidification. a Live-cell imaging of HEK293T cells stably expressing mCherry-GFP-LC3 treated with 0.5 μM UNI418 at the indicated time points; the images within the white rectangular boxes are magnified on the right side. Scale bar, 30 µm. The number (b) and area (c) of GFP-positive dots per cell were quantified by ImageXpress. d Immunofluorescence images illustrating the inhibition of endolysosomal acidification by UNI418. Vero cells were treated with the mock control or 1 µM UNC3230, apilimod or UNI418 for 1 h at 37 °C. […] The cells were analyzed by confocal microscopy using two emission wavelengths at 493–560 (green) and 590–720 nm (red) after excitation at 488 nm. […] The green-to-red fluorescence intensity ratio (e) and the area of fluorescent spots (f) were quantified. b, c, e, f The data are presented as the means ± SEMs, with a minimum of 200 spots. […]

Chain of PIP5K1A (Q99755 whole entry): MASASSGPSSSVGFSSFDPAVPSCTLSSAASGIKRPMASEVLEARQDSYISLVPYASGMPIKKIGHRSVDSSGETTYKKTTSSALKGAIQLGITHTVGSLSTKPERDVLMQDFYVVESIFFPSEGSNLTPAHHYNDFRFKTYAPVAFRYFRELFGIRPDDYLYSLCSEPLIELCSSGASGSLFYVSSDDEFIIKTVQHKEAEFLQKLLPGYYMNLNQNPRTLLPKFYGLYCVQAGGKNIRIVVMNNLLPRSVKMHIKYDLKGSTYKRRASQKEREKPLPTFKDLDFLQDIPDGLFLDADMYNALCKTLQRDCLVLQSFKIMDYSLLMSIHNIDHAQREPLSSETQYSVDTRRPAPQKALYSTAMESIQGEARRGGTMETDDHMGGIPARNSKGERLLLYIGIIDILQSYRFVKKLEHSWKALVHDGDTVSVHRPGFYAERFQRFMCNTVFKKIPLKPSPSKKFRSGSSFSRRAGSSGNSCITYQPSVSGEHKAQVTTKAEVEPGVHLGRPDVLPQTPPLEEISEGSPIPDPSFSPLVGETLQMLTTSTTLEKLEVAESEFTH

c1ccc(-c2cc(Nc3nc(-c4ccncc4)nc4ccccc34)n[nH]2)cc1 [UNI418, N -(5-phenyl-1 H -pyrazol-3-yl)-2-(4-pyridinyl)-4-quinazolinamine]
pIC50 (PIP5K1A): 6.59 | inhibition at 1 µM (PIP5K1A; 1 μM UNI418, [ATP] 10 μM): 67% | pIC50 (PIP5K1C): 7.22 | inhibition at 1 µM (PIP5K1C; 1 μM UNI418, [ATP] 10 μM): 93% | pIC50 (PIP5K1B): 7.22 | inhibition at 1 µM (PIP5K1B; 1 μM UNI418, [ATP] 10 μM): 93% | pseudotyped virus entry (VSV-G-pseudotyped virus): unaffected | number of nonacidic autophagosomes [1]: considerably increased
